Laboratory results as given in US10865207B2, “Compounds for imaging Tau protein aggregates” (AC IMMUNE S.A., priority 2016, dated 2020).

Columns and labels:
Tau = Tau (Homo sapiens, UniProt P10636); experiment: Competition binding to Tau in human AD brain homogenate with 18F-labeled Tau binder; parameters: High affinity to Tau (grade): key: −: poor; ∘: moderate; +: good; ++: very good; +++: excellent; settings: for IC50: human AD brain homogenate, determined with non-radioactive fluorine-19 derivatives; as to high Tau binding (grade): key: −: poor; ∘: moderate; +: good; ++: very good; +++: excellent
Experimental: (§1) 20 μg of human Alzheimer disease brain homogenate was incubated with a dilution series of each test compound (1000 to 0.06 nM) in the presence of 800 Bq of ^18F-labeled Tau binder. The samples were shaken at 110 rpm for 45 min at 37° C. Samples were then filtered through GF/B 96 well filter plates and washed twice with 300 μL assay buffer (PBS containing 0.1% BSA and 2% DMSO). Thereafter, filter plates were sealed and a Fuji Film Imaging Plate (BAS-SR2025) was placed on top. The imaging plate was analyzed after overnight exposition using a Fuji Film BAS-5000. Non-specific signal was determined with samples containing ^18F-labeled Tau-reference binder in the presence of assay buffer without brain substrate and competitor. […] The unblocked ^18F-labeled Tau-binder signal was defined as total binding. IC50 values were calculated by Prism V6 (GraphPad) setting total binding to 100%.

MAO A [1] = molecular target: T1, MAO A (Mus musculus, UniProt Q64133); experiment: MAO A 18F-FEH competition assay in mouse brain homogenate; type: binding; parameters: Low affinity to MAO A (grade), mouse brain homogenate: key to the marks not given beside the values; settings: for IC50: 18F-FEH competition, fluorine-19 derivatives
T1 construct: from tissue; host or cells: whole mouse brain homogenate
T1 sequence (Q64133 1-526): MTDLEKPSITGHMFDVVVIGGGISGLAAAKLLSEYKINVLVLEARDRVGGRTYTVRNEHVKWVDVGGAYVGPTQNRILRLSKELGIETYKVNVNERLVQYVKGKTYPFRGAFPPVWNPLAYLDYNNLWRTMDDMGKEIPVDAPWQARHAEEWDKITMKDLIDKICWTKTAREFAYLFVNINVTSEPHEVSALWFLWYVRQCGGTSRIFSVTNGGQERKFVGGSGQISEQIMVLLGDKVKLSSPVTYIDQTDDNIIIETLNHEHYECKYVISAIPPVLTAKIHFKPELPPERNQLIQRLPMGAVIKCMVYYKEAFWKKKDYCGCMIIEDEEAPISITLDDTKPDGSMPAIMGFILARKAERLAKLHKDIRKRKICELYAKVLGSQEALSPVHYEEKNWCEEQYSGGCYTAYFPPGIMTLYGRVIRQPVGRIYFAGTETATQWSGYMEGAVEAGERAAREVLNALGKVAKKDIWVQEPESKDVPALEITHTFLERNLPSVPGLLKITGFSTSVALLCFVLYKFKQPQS

MAO B = molecular target: T2, MAO B (Homo sapiens, UniProt P27338); experiment: MAO B 18F-fluoro deprenyl competition assay in human HC brain homogenate; type: binding; parameters: Low affinity to MAO B (grade): key: −: poor; ∘: moderate; +: good; ++: very good; +++: excellent
T2 construct: 20 μg of human brain homogenate (without AD pathology); from tissue; host or cells: human brain homogenate without AD pathology
T2 sequence (P27338 1-520): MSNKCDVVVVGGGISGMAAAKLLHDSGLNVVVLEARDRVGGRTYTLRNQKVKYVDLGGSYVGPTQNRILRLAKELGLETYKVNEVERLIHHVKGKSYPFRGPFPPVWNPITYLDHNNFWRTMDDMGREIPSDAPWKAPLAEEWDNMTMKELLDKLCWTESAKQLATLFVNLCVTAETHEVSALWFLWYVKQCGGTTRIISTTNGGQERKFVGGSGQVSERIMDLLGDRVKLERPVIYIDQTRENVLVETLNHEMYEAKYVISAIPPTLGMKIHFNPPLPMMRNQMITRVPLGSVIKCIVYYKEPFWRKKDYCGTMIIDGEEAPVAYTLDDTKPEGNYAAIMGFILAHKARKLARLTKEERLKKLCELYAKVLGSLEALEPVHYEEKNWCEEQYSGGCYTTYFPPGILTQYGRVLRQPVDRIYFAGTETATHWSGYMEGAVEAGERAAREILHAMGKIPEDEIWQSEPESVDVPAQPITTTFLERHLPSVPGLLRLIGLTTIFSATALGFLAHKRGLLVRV
Experimental: The samples were shaken at 110 rpm for 45 min at 37° C. Samples were then filtered through GF/B 96 well filter plates and washed twice with 300 μL assay buffer (PBS containing 0.1% BSA and 2% DMSO). Thereafter, filter plates were sealed and a Fuji Film Imaging Plate (BAS-SR2025) was placed on top. The imaging plate was analyzed after overnight exposition using a Fuji Film BAS-5000. […] IC50 values were calculated by Prism V6 (GraphPad) setting total binding to 100%.

MAO A [2] = molecular target: T3, MAO A (Homo sapiens, UniProt P21397); experiment: MAO A FEH competition assay in human HC brain homogenate; type: binding; parameters: Low affinity to MAO A (grade), HC homogenate: key: −: poor; ∘: moderate; +: good; ++: very good; +++: excellent; settings: for IC50: human control brain homogenate, FEH competition, fluorine-19 derivatives
T3 construct: 20 μg of human brain homogenate (without AD pathology); from tissue; host or cells: human brain homogenate without AD pathology
T3 sequence (P21397 1-527): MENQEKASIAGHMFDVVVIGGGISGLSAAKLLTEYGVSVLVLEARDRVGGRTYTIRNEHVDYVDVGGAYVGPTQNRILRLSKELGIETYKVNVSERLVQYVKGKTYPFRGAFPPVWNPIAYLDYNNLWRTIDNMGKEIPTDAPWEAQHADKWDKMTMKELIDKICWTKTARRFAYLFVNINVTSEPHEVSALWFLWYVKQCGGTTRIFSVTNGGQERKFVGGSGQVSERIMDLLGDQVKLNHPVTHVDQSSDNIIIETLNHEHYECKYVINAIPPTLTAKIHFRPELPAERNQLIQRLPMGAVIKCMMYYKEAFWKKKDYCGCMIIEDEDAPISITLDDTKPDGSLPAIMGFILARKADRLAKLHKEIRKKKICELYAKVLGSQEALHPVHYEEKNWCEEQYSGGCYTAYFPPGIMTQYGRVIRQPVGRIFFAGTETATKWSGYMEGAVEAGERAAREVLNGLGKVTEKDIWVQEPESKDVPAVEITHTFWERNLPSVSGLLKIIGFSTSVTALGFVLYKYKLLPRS
Experimental: as §1, with “human” for “human Alzheimer disease”, “homogenate (without AD pathology)” for “homogenate”, “MAO-A binder ([^18F]fluoroethyl harmine, FEH).” for “Tau binder.”, “FEH” for “Tau-reference binder”, “FEH” for “Tau-binder”

Chain of Tau (P10636 623-708 limits assumed): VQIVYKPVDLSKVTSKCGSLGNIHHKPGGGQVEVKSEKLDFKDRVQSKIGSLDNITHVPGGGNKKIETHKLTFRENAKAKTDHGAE

Structure (SMILES)	high Tau binding (grade) (Tau; Table 2, fluorine-19 derivatives)	IC50 (Tau) [nM]	IC50 (MAO A [1]) [nM]	low MAO A binding (grade) (MAO A [1]; Table 2, IC50 in mouse brain homogenate)	IC50 (MAO B) [nM]	IC50 (MAO A [2]) [nM]	High affinity to Tau (grade) (Tau; Table 1, IC50 in AD brain homogenate, fluorine-19 derivatives)	Low affinity to MAO A (grade), mouse brain homogenate (MAO A [1]; Table 1)	fold higher MAO A IC50 than compound 18F-1 (MAO A [1]; whole mouse brain homogenate) [fold]	fold higher MAO A IC50 than compound 18F-2 (MAO A [1]; whole mouse brain homogenate) [fold]	fold higher MAO B IC50 than compound 18F-1 (MAO B; HC brain homogenate) [fold]	Low affinity to MAO B (grade) (MAO B; Table 1)	fold higher MAO A IC50 than compound 18F-1 (MAO A [2]; HC brain homogenate) [fold]	fold higher MAO A IC50 than compound 18F-2 (MAO A [2]; HC brain homogenate) [fold]	Low affinity to MAO A (grade), HC homogenate (MAO A [2]; Table 1)
Fc1ncccc1-c1ccc2c(n1)[nH]c1ccncc12 [Compound F-4]	+++	< 2	> 1000	+++	> 1000	530									
[18F]c1ncccc1-c1ccc2c(n1)[nH]c1ccncc12 [Compound ^18F-4]		< 2	1300		> 1000	530	+++	+++	59	2.7	> 5	+++	106	5	++
